Results taken from patent US9668473B2, “Process for obtaining biopolymeric nanoparticles containing Azadirachta indica A. Juss. (neem.) oil and extracts, biopolymeric nanoparticles, and powder microparticles” (priority 2013, dated 2017).
Like-named read-outs stand apart in the source and are kept apart here.

Columns and labels:
[1] = Azadirachtin solubility and dispersion capability in aqueous phase; format: physicochemical
Text: This value represents an azadirachtin dispersion capability 13 times greater than its solubility. That is, it is possible to prepare a new formulation for applying Neem extracts and oil with high azadirachtin contents, whereas the surfactant content is kept low (Tween®80=0.5% m/v). It should be clear for those skilled in the art that this value represents a non-limiting example; greater dispersion capabilities are fairly possible according to the extract content used.

[2] = format: physicochemical
Description: Reproducibility, Resistance, Recovery, and Storage Stability
Azadirachtin solutions stores at 4° C. were considered stable.

[3] = cited from earlier work

For `C/C=C(\C)C(=O)O[C@H]1C[C@@H](OC(C)=O)[C@@]2(C(=O)OC)CO[C@H]3[C@@H](O)[C@@](C)([C@]45O[C@@]4(C)[C@H]4C[C@@H]5O[C@@H]5OC=C[C@@]54O)[C@H]4[C@]1(CO[C@]4(O)C(=O)OC)[C@@H]32` [Azadirachtin, azadirachtin], the Azadirachtin solubility [1] is given as 26.0 mg 100 mL^−1, the storage stability [2] is given as “stable” and the azadirachtin activity ([3]; after 4 hours of sunlight exposure) is given as about 60%. For the same compound, the azadirachtin activity ([3]; after 15 hours of sunlight exposure) was about 50%.
